Test results: the SangsterLogP compilation

Assay: method code SF, from DOI: 10.1002/jps.2600780616, PMID: 2527297
Settings: pH 7.4

SMILES	logD
CCc1ccc2oc(N(N)CCC#N)nc2c1	1.91
CS(=O)(=O)c1ccc2oc(N(N)CCC#N)nc2c1	-0.58
CSc1ccc2oc(N(N)CCC#N)nc2c1	1.5
N#CCCN(N)c1nc2cc(Cl)ccc2o1	1.72
N#CCCN(N)c1nc2cc(C#N)ccc2o1	0.42
N#CCCN(N)c1nc2cc(F)ccc2o1	1.09
N#CCCN(N)c1nc2ccccc2o1	0.9
COc1ccc2oc(N(N)CCC#N)nc2c1	0.98
CS(=O)c1ccc2oc(N(N)CCC#N)nc2c1 (centres undefined)	-0.53
N#CCCN(N)c1nc2cc(OCc3ccccc3)ccc2o1	2.52
Cc1ccc2oc(N(N)CCC#N)nc2c1	1.48
N#CCCN(N)c1nc2cc(C(=O)c3ccccc3)ccc2o1	1.94
CC(C)(C)c1ccc2oc(N(N)CCC#N)nc2c1	2.82
N#CCCN(N)c1nc2cc(C(F)(F)F)ccc2o1	1.72
